This is an account of results in ChEMBL document CHEMBL1201862, “PubChem BioAssay data set” (2004).

Some test systems named below: OVCAR-4; U-251; SNB-75; SK-MEL-28; ACHN; MDA-MB-231; HOP-92; RXF 393; CAKI-1; OVCAR-3; A498; KM12; SF-539; TK-10; PC-3; HCT-116; SW-620; NCI/ADR-RES; HT-29; IGROV-1; EKVX; NCI-H226; SK-MEL-5; MDA-MB-435; A549; NCI-H23; SF-268; OVCAR-5; M14; SNB-19; SF-295; OVCAR-8; UO-31; HCT-15; DU-145; COLO 205; MDA-N; SN12C; HL-60; HCC 2998; SK-MEL-2; Malme-3M; SK-OV-3; RPMI-8226.
Assay in all cases: NCI tumour cell line growth inhibition, 48 h

Where “and” joins values, the source holds several entries; their conditions need not be identical. Equal entries are not always repeated.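 Exposure lasted 48 hours, with cells grown in 96-well plates and compounds tested at five concentrations. GI50 marks 50% less growth.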 Calls of active or inactive are those of the source. Rule as the data show it: active = GI50 up to about 1.1 µM and inactive = higher. Where only a bound is given, the exact number is not on record here.

Regarding `CSc1ccc(C(=C=C=C(c2ccc(SC)s2)c2ccc(SC)s2)c2ccc(SC)s2)s1`, the GI50 in the assay with OVCAR-4, in the assay with U-251, with SNB-75, in the assay with SK-MEL-28, with ACHN and with MDA-MB-231 was > 10 µM (inactive) in each case. The GI50 with HOP-92, in the assay with RXF 393, in the assay on CAKI-1, in the assay with OVCAR-3, in the assay with A498 and with KM12 was > 10 µM (inactive) each time. Moreover, the GI50 with SF-539, in the assay with TK-10, with PC-3, in the assay on HCT-116, in the assay with SW-620 and in the assay on NCI/ADR-RES was > 10 µM (inactive) in each case. Moreover, the GI50 in the assay with HT-29, in the assay with IGROV-1, in the assay on EKVX, in the assay with NCI-H226, in the assay on SK-MEL-5 and in the assay with MDA-MB-435 was > 10 µM (inactive) throughout. For the same compound, the GI50 with A549, in the assay on NCI-H23, in the assay with SF-268, in the assay with OVCAR-5, in the assay with M14 and in the assay with SNB-19 was > 10 µM (inactive) throughout. The GI50 is > 10 µM (inactive) in the assay with SF-295; > 10 µM (inactive) in the assay with OVCAR-8; > 10 µM (inactive) in the assay with UO-31; over 10 µM in the assay on HCT-15; > 10 µM (inactive) in the assay with DU-145; > 10 µM (inactive) with COLO 205. Further, the GI50 with MDA-N and with SN12C was > 10 µM (inactive) each time.

With `O=C1C=C2C=CC3CC2(O1)C1CCCCN31` (stereo not given), the GI50 in the assay on HL-60 was 17.2 µM (inactive); in the assay on HOP-92, 12.7 µM (inactive) and 18.3 µM (inactive) and 22.8 µM (inactive); with KM12, 19.2 µM (inactive) and 14.8 µM (inactive) and 12.5 µM (inactive); in the assay with HCC 2998, 16.8 µM (inactive) and 20.3 µM (inactive) and 27.3 µM (inactive); in the assay on PC-3 it was 21.5 µM (inactive) and 40.4 µM (inactive) and 25.1 µM (inactive); in the assay with SK-MEL-2, 28.1 µM (inactive) and 16.8 µM (inactive) and 27.9 µM (inactive). The GI50 was 14.9 µM (inactive) with Malme-3M; 20.5 µM (inactive) and 33.7 µM (inactive) and 30.6 µM (inactive) with SK-OV-3; 28.3 µM (inactive) and 32.4 µM (inactive) and 18.7 µM (inactive) with SNB-19; 23.3 µM (inactive) and 35.3 µM (inactive) and 45.2 µM (inactive) with SF-295; 17.3 µM (inactive) and 28.3 µM (inactive) and 19.1 µM (inactive) with OVCAR-8.

On to `O=C(c1ccc(Cl)c(Cl)c1)N1CCN(C(=O)c2ccc(Cl)c(Cl)c2)C1=S`, for which the GI50 in the assay on RPMI-8226 is 1.83 µM (inactive).
